The source of these data is article PMC4474394 (OncoTargets and therapy, 2015).

This series in a line: In vivo biodistribution in NCI-H157-bearing BALB/c nude mice. As to conditions: 99mTc-labeled peptide, judged from weak accumulation in brain tissue.

Consider TMPFLFCNVNDVCNFASRNDYSKKK [T7], for which the “Blood–brain barrier penetration” value is listed as “poor”.
